pIC50, pKd, pKi: −log10 of the molar value. Where “and” joins values, the source holds several entries; their conditions need not be identical. Identical values can stand only once. Entries after “also recorded” stand apart in the source; their conditions may differ. Like-named read-outs stand apart in the source and are kept apart here.
Columns and labels:
recombinant LstiGOBP2 = recombinant LstiGOBP2 (Loxostege sticticalis, UniProt C6ZDA6); experiment: biochemical; type: binding; details: for binding to LstiGOBP2 (in words): competitive displacement of 1-NPN
Description: Fluorescence spectra were recorded in a right angle configuration on a Lengguang 970 CRT spectrofluorimeter (Shanghai Jingmi, China) at room temperature using a 1-cm light path fluorimeter quartz cuvette. Slit widths of 10 nm were selected for both excitation and emission. The spectra data were processed using 970 CRT 2.0l software.
N-phenyl-1-naphthylamine (1-NPN) was dissolved in methanol to yield a 1 mM stock solution. […] 1-NPN was excited at 337 nm and emission spectra were recorded between 350 and 600 nm. Spectra were recorded with high-speed scanning. All ligands used in competition experiments were dissolved in spectrophotometric-grade methanol. Binding data were collected in three independent measurements.
Bound ligand was evaluated from the values of fluorescence intensity assuming that the protein was 100% active, with a stoichiometry of 1∶1 (protein∶ligand) at saturation. The K1-NPN values were estimated using Prism 5 (GraphPad Software, Inc.) by nonlinear regression for a unique site of binding. The curves were linearized using Scatchard plots.

L. sticticalis antennae = experiment: Electroantennogram (EAG) recording; set-up: species or system Loxostege sticticalis; details: for EAG response (in words) / EAG depolarization: 10 mg/ml in hexane; for EAG response (in words): adult antennae; for EAG depolarization: highest EAG responses
Description: Antennae of adult moths were excised at the base and immediately placed on an EAG Micromanipulator MP-15 (Syntech) platform for EAG. Antennae were attached to two electrode holders with non-drying clay (Spectra 360 Electrode Gel). […] Pure chemicals were diluted with hexane to a final concentration of 10 mg/ml. EAG signals were amplified, monitored, and analyzed with EAG-Pro software (Syntech). The preparation was held in a humidified air stream delivered by a Syntech stimulus controller (CS-55 model; Syntech) at 500 ml/min, to which a stimulus pulse of 40 ml/min was added for […]. Signals were recorded for 10 sec, beginning at 2 sec before the onset of the stimulus pulse. An aliquot (10 µl) of each stimulus was loaded onto a filter paper strip. After each sample was tested, hexane was tested as a control. EAG responses of at least three antennae were recorded.

LstiGOBP1 = test system: LstiGOBP1; set-up: method as in earlier work; details: cited from earlier work
[1] = IC50 (concentration of ligand halving the initial fluorescence intensity), protein 2 µM, 1-NPN probe, ligand titrated to 2–50 µM in methanol
[2] = Ki (relative dissociation constant), calculated from IC50: Ki = [IC50]/1+[1-NPN]/K1-NPN
[3] = read-out: Int (fluorescence intensity as percent of the initial fluorescence), at ligand concentration 20 µM, protein 2 µM, 1-NPN probe
[4] = read-out: Int (fluorescence intensity as percent of the initial fluorescence)
[5] = calculated from IC50: Ki = [IC50]/1+[1-NPN]/K1-NPN, read-out: Ki (relative dissociation constant)
[6] = at ligand concentration 20 µM, protein 2 µM, 1-NPN probe
[7] = protein 2 µM, 1-NPN probe, ligand titrated to 2–50 µM in methanol, read-out: IC50 (concentration of ligand halving the initial fluorescence intensity)
[8] = at ligand concentration 20 µM, protein 2 µM, 1-NPN probe, read-out: Int (fluorescence intensity as percent of the initial fluorescence)

Chain of recombinant LstiGOBP2 (C6ZDA6 entry or part of it): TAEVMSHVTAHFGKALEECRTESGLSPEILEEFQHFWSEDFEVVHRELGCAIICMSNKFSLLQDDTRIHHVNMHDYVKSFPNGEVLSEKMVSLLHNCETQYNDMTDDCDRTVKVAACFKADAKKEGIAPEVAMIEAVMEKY

## CC(=O)CCC=C(C)C [6-Methyl-5-hepten-2-one]
Recombinant LstiGOBP2; [1]
  pIC50: 4.55
Recombinant LstiGOBP2; [2]
  pKi: 4.78
Recombinant LstiGOBP2; [3]
  activity at 20 µM: 64%

## CC/C=C\CCO [Cis-3-hexen-1-ol]
Recombinant LstiGOBP2
  pIC50: 4.72
  pKi: 4.95
  binding to LstiGOBP2 (in words): high binding affinities
Recombinant LstiGOBP2; [4]
  activity at 20 µM: 49%
L. sticticalis antennae
  EAG response (in words): high EAG response

## CCCCCCCO [1-Heptanol]
Recombinant LstiGOBP2
  pIC50: 4.98
Recombinant LstiGOBP2; [5]
  pKi: 5.21
Recombinant LstiGOBP2; [4]
  activity at 20 µM: 40%
L. sticticalis antennae
  EAG depolarization: −1.6 mV

## Iso-octanol
Recombinant LstiGOBP2; [6]
  Int (fluorescence intensity as percent of the initial fluorescence): 58%
Recombinant LstiGOBP2; [5]
  pKi: 4.78
Recombinant LstiGOBP2; [7]
  pIC50: 4.55

## CCCCCCC=O [1-Heptanal]
Recombinant LstiGOBP2
  pIC50: 4.62
Recombinant LstiGOBP2; [5]
  pKi: 4.85
Recombinant LstiGOBP2; [4]
  activity at 20 µM: 52%

## O=Cc1ccccc1 [Benzaldehyde]
Recombinant LstiGOBP2; [1]
  pIC50: 4.72
Recombinant LstiGOBP2; [2]
  pKi: 4.95
Recombinant LstiGOBP2; [3]
  activity at 20 µM: 48%
L. sticticalis antennae
  EAG response (in words): weak response

## C=CC(=C)CCC=C(C)C [Myrcene]
Recombinant LstiGOBP2; [8]
  activity at 20 µM: 56%
Recombinant LstiGOBP2; [5]
  pKi: 4.83
Recombinant LstiGOBP2; [7]
  pIC50: 4.60

## CCCCCCCCCCCCCCC [Pentadecane]
LstiGOBP1
  binding to LstiGOBP1 (in words): bind

## COC(=O)c1ccccc1O [Methyl salicylate]
Recombinant LstiGOBP2
  pIC50: < 4.30
Recombinant LstiGOBP2; [4]
  activity at 20 µM: 83%

## O=CCc1ccccc1 [Phenyl acetaldchyde]
Recombinant LstiGOBP2; [6]
  Int (fluorescence intensity as percent of the initial fluorescence): 50%
Recombinant LstiGOBP2; [5]
  pKi: 4.93
Recombinant LstiGOBP2; [7]
  pIC50: 4.70

## C=CC(O)CCCCC (stereo not shown) [1-Octen-3-ol]
LstiGOBP1
  binding to LstiGOBP1 (in words): present an affinity
L. sticticalis antennae
  EAG response (in words): strong responses; also recorded: intensive responses

## CC12CCC(CC1=O)C2(C)C (stereo not shown) [Camphor]
Recombinant LstiGOBP2
  pIC50: 4.85
Recombinant LstiGOBP2; [5]
  pKi: 5.09
Recombinant LstiGOBP2; [4]
  activity at 20 µM: 41%

## O=C/C=C/c1ccccc1 [Cinnamaldehyde]
Recombinant LstiGOBP2; [1]
  pIC50: 4.77
Recombinant LstiGOBP2; [2]
  pKi: 5.00
Recombinant LstiGOBP2; [3]
  activity at 20 µM: 45%
L. sticticalis antennae
  EAG response (in words): weak response

## C=C(C)[C@H]1CC=C(C)CC1 [R-(+)-Limonene]
LstiGOBP1
  binding to LstiGOBP1 (in words): do not show affinities
Recombinant LstiGOBP2
  binding to LstiGOBP2 (in words): do not show affinities
L. sticticalis antennae
  EAG response (in words): strong responses

## CCC/C=C\CO [Cis-2-hexen-1-ol]
Recombinant LstiGOBP2
  pIC50: 4.62
  pKi: 4.85
Recombinant LstiGOBP2; [8]
  activity at 20 µM: 59%

## C=CC(C)(O)CCC=C(C)C (single isomer, unassigned; (-)) [(-)-Linalool]
Recombinant LstiGOBP2
  pIC50: 4.55
  pKi: 4.78
Recombinant LstiGOBP2; [8]
  activity at 20 µM: 53%

## CCCCCC=O [1-Hexanal]
Recombinant LstiGOBP2
  pIC50: 4.90
  pKi: 5.14
  binding to LstiGOBP2 (in words): high affinities
Recombinant LstiGOBP2; [4]
  activity at 20 µM: 36%

## COC(=O)c1ccccc1C(=O)OC [Dimethyl phthalate]
Recombinant LstiGOBP2; [1]
  pIC50: 4.70 and 4.44
Recombinant LstiGOBP2; [2]
  pKi: 4.93 and 4.67
Recombinant LstiGOBP2; at ligand concentration 20 µM, protein 2 µM, 1-NPN probe, 20 µM
  Int (fluorescence intensity as percent of the initial fluorescence): 64%
Recombinant LstiGOBP2; [3]
  activity at 20 µM: 50%

## CCCCCCCC=O [1-Octanal]
Recombinant LstiGOBP2; [8]
  activity at 20 µM: 52%
Recombinant LstiGOBP2; [5]
  pKi: 4.85
Recombinant LstiGOBP2; [7]
  pIC50: 4.62
L. sticticalis antennae
  EAG depolarization: −1.6 mV

## C=C1CC/C=C(\C)CC[C@@H]2[C@@H]1CC2(C)C [(-)-Trans-caryophyllene]
Recombinant LstiGOBP2
  pIC50: < 4.30
  binding to LstiGOBP2 (in words): very weak binding affinity
Recombinant LstiGOBP2; [4]
  activity at 20 µM: 86%

## CC(=O)/C=C/C1=C(C)CCCC1(C)C [β-ionone]
Recombinant LstiGOBP2; [1]
  pIC50: 4.96
Recombinant LstiGOBP2; [2]
  pKi: 5.19
Recombinant LstiGOBP2
  binding to LstiGOBP2 (in words): strongest affinities
Recombinant LstiGOBP2; [3]
  activity at 20 µM: 37%
L. sticticalis antennae
  EAG response (in words): weak effects; also recorded: failed to elicit a strong electrophysiological response

## CC1=CC[C@H](C(C)C)C=C1 [α-Phellandrene]
LstiGOBP1
  binding to LstiGOBP1 (in words): do not show affinities
Recombinant LstiGOBP2
  binding to LstiGOBP2 (in words): do not show affinities
L. sticticalis antennae
  EAG response (in words): strong responses

## CCC/C=C/CO [Trans-2-hexen-1-ol]
LstiGOBP1
  binding to LstiGOBP1 (in words): present an affinity
L. sticticalis antennae
  EAG response (in words): intensive responses
L. sticticalis antennae; listed as E-2-hexeno1
  EAG response (in words): strong responses

## CCC/C=C/C=O [Trans-2-hexenal]
Recombinant LstiGOBP2
  pIC50: 4.98
  pKi: 5.21
  binding to LstiGOBP2 (in words): high binding affinities
L. sticticalis antennae
  EAG response (in words): high EAG response

## CCCCC=O [1-Pentanal]
Recombinant LstiGOBP2; [8]
  activity at 20 µM: 46%
Recombinant LstiGOBP2; [5]
  pKi: 5.09
Recombinant LstiGOBP2
  binding to LstiGOBP2 (in words): high affinities
Recombinant LstiGOBP2; [7]
  pIC50: 4.85

## CC(C)=CCCC(C)O (stereo not shown) [6-Methyl-5-hepten-2-ol]
Recombinant LstiGOBP2; [8]
  activity at 20 µM: 63%
Recombinant LstiGOBP2; [5]
  pKi: 4.78
Recombinant LstiGOBP2; [7]
  pIC50: 4.55

## CC(=O)/C=C/C1C(C)=CCCC1(C)C (stereo not drawn) [α-ionone]
Recombinant LstiGOBP2; [1]
  pIC50: 5.10
Recombinant LstiGOBP2; [2]
  pKi: 5.33
Recombinant LstiGOBP2
  binding to LstiGOBP2 (in words): strongest affinities
Recombinant LstiGOBP2; [3]
  activity at 20 µM: 39%
L. sticticalis antennae
  EAG response (in words): weak effects; also recorded: failed to elicit a strong electrophysiological response

## CC(C)=CCC/C(C)=C/CO [Geraniol]
Recombinant LstiGOBP2; [1]
  pIC50: 4.66
Recombinant LstiGOBP2; [2]
  pKi: 4.89
Recombinant LstiGOBP2; [3]
  activity at 20 µM: 54%

## C=C1C2CCC(C2)C1(C)C (stereo not shown) [Camphene]
Recombinant LstiGOBP2; [7]
  pIC50: 4.64
Recombinant LstiGOBP2; [4]
  activity at 20 µM: 54%

## CC/C=C\CCOC(C)=O [Cis-3-hexenyl acetate]
Recombinant LstiGOBP2; [8]
  activity at 20 µM: 57%
Recombinant LstiGOBP2; [5]
  pKi: 4.77
Recombinant LstiGOBP2; [7]
  pIC50: 4.54

## c1ccc(Nc2cccc3ccccc23)cc1 [1-NPN, N-phenyl-1-naphthylamine, reference compound]
Recombinant LstiGOBP2
  pKd: ~5.84

## c1ccc2scnc2c1 [Benzothiazole]
Recombinant LstiGOBP2
  pIC50: 4.66
  pKi: 4.89
Recombinant LstiGOBP2; [4]
  activity at 20 µM: 52%

## CC/C=C/CCCCCCCCCCOC(C)=O [Trans-11-tetradecen-1-yl acetate]
Recombinant LstiGOBP2; [8]
  activity at 20 µM: 48%
Recombinant LstiGOBP2; [5]
  pKi: 4.97
Recombinant LstiGOBP2
  binding to LstiGOBP2 (in words): bind strongly; also recorded: high binding affinity
Recombinant LstiGOBP2; [7]
  pIC50: 4.74
L. sticticalis antennae; male antennae, 10 mg/ml
  EAG response of the male antennae (in words): highest among all the volatiles tested
L. sticticalis antennae; male vs female antennae
  EAG response difference between males and females: significantly different

## CC(C)(C)c1ccc(O)c(C(C)(C)C)c1 [2,4-Di-tert-butylphenol]
Recombinant LstiGOBP2
  pIC50: 4.70
  pKi: 4.93
  binding to LstiGOBP2 (in words): high affinity
Recombinant LstiGOBP2; [4]
  activity at 20 µM: 50%
L. sticticalis antennae
  EAG response (in words): weak effects; also recorded: weak response

## CCCCCCCCC=O [1-Nonanal]
Recombinant LstiGOBP2; [8]
  activity at 20 µM: 66%
Recombinant LstiGOBP2; [5]
  pKi: 4.64
Recombinant LstiGOBP2
  binding to LstiGOBP2 (in words): very weak binding affinity
Recombinant LstiGOBP2; [7]
  pIC50: 4.41

## CCC/C=C/COC(C)=O [Trans-2-hexenyl acetate]
Recombinant LstiGOBP2; [8]
  activity at 20 µM: 59%
Recombinant LstiGOBP2; [5]
  pKi: 4.78
Recombinant LstiGOBP2; [7]
  pIC50: 4.55

## CC=CCCCO [4-Hexen-1-ol]
Recombinant LstiGOBP2
  pIC50: 4.59
  pKi: 4.82
Recombinant LstiGOBP2; [8]
  activity at 20 µM: 58%

## CCCCCCO [1-Hexanol]
Recombinant LstiGOBP2
  pIC50: 4.96
Recombinant LstiGOBP2; [5]
  pKi: 5.19
Recombinant LstiGOBP2; [4]
  activity at 20 µM: 42%

— paper PMC3316592, “Functional Analysis of General Odorant Binding Protein 2 from the Meadow Moth, Loxostege sticticalis L. (Lepidoptera: Pyralidae)” (PLoS ONE, 2012)
